We go through four molecules from patent US12653189B2, “Herbicidal compositions comprising glyphosate” (BASF SE, priority 2023, dated 2026).

Common to all, as to experiment: Post-emergence application in field trials
What all share (format): in vivo

Assay [1] has as its system ECHCG (Echinocloa crus-galli). As to conditions: growth stage 23-30, height 15-20 cm, water volume 200 l/ha, 0.25% v/v MSO. The protocol:
(§1) In the examples below, using the method of S. R. Colby (1967) “Calculating synergistic and antagonistic responses of herbicide combinations”, Weeds 15, p. 22ff., the value E, which is expected if the activity of the individual active compounds is only additive, was calculated:
(§2) [formula] • where • X=percent activity using active herbicide A at an application rate a; • Y=percent activity using active glyphosate at an application rate b; • E=expected activity (in %) by A+B at application rates a+b.
(§3) For 3- and 4-component mixtures (examples 3-5) the synergistic response was calculated as described in: Ferry, Nancy; Stanley, Bruce H.; and Armel, Gregory (2005). “DESIGN AND ANALYSIS OF BIOLOGICAL ASSAYS OF MIXTURES,” Conference on Applied Statistics in Agriculture. https://doi.org/10.4148/2475-7772.1133. According to this publication, the Colby calculation can be generalized to a third mixing partner, Z, employing the following formula: […]
(§4) If the value found experimentally is higher than the value E calculated according to Colby, a synergistic effect is present.
(§5) On field test sites, natural weed infestation or seeded weeds were treated post-emergence of the weeds.
(§6) In the field trials, the weedy plants were treated as indicated below.
(§7) Herbicide A-1 (342 g/I), glyphosate (480 g/I or 575 g/l) and optional herbicide C were, together with addition of 0.5% v/v MSO (methylated seed oil) as adjuvant (unless indicated otherwise), formulated in water as distribution medium as indicated and sprayed with commercial flat fan nozzles.
(§8) In the following experiments, the herbicidal activity for the individual herbicidal compositions (solo and mixture applications) was assessed at the indicated days after treatment (DAT). The assessments for the damage on undesired weeds caused by the composition was carried out using a scale from 0 to 100%, compared to the untreated control plants. Here, 0 means no damage and 100 means complete destruction of the plants.

Assay [2] deals with DIGIN = TRCIN (Digitaria insularis). As to conditions: height 20-30 cm, A-1 50 g ai/ha, B-6 1080 g ai/ha, 7 DAT, water volume 200 l/ha, 0.5% v/v MSO. As to the method:
as §1, §2, §3, §4, §5, §6, §7, §8

For assay [3], the system named is GLXMA (Glycine max (soybean)). As to conditions: glyphosate-tolerant volunteer soybean M 6210 IPRO (GLXMA), growth stage 18; A-1 25 g ai/ha, B-6 1080 g ai/ha; 21 DAT; water volume 200 l/ha; 0.5% v/v MSO. The protocol: as §1, §2, §3, §4, §5, §6, §7, §8
Another assay has as its system PANMA (Panicum maximum). As to conditions: A-1 25 g ai/ha, B-6 1080 g ai/ha, 21 DAT, water volume 100 l/ha, 0.5% v/v MSO. As to the method: as §1, §2, §3, §4, §5, §6, §7, §8
Assay [4] concerns AMARE (Amaranthus retroflexus). As to the method:
as §1, §2, §3, §4, §5, §6, §7, §8

The test system of assay [5] is AMAPA (Amaranthus palmeri). As to conditions: Glyphosate (EPSPS) resistant AMAPA, height 5-23 cm; A-1 50 g ai/ha, B-6 840 g ai/ha; 21 DAT; water volume 140 l/ha; 1% v/v MSO + 2.5% v/v AMS. The protocol: as §1, §2, §3, §4, §5, §6, §7, §8
In assay [6] the test system is COMBE (Commelina benghalensis). Particulars: B-6 1080 g ai/ha, 21 DAT, water volume 200 l/ha, 0.5% v/v MSO. As to the method: as §1, §2, §3, §4, §5, §6, §7, §8
The subject of the next assay is ZEAMX (Zea mays (maize)). Particulars: glyphosate-tolerant volunteer corn RB 9006 PRO 2 (ZEAMX), growth stage 18; A-1 25 g ai/ha, B-6 1080 g ai/ha; 21 DAT; water volume 200 l/ha; 0.5% v/v MSO. As to the method:
as §1, §2, §3, §4, §5, §6, §7, §8

For assay [7], the system named is SPCHI (Spermacoce hispida). Particulars: height 25 cm, A-1 25 g ai/ha, B-6 1080 g ai/ha, 21 DAT, water volume 100 l/ha, 0.5% v/v MSO. The protocol: as §1, §2, §3, §4, §5, §6, §7, §8
The subject of the next assay is ELEIN (Eleusine indica). Particulars: growth stage 23-25, height 3-5 cm, A-1 25 g ai/ha, B-6 1080 g ai/ha, 20 DAT, water volume 200 l/ha, 0.5% v/v MSO. As to the method:
as §1, §2, §3, §4, §5, §6, §7, §8

The test system of a further assay is IPOTR (Ipomoea triloba). Particulars: B-6 1080 g ai/ha, 21 DAT, water volume 200 l/ha, 0.5% v/v MSO. The protocol: as §1, §2, §3, §4, §5, §6, §7, §8
The test system of assay [8] is BRADC (Brachiaria decumbens). Particulars: A-1 50 g ai/ha, B-6 1080 g ai/ha, 21 DAT, water volume 100 l/ha, 0.5% v/v MSO. As to the method: as §1, §2, §3, §4, §5, §6, §7, §8
In a further assay the test system is AMATU. As to conditions: growth stage 19, height 10-20 cm, A-1 50 g ai/ha, B-6 840 g ai/ha, 23 DAT, water volume 140 l/ha, 1% v/v MSO + 2.5% v/v AMS. As to the method: as §5, §6, §7, §8
The test system of assay [9] is HORVW (Hordeum vulgare (barley)). As to conditions: HORVW volunteer crop, growth stage 23-29, height 20-25 cm; A-1 + C-4 12.5 + 12.5, B-6 840, C-1 12.5 g ai/ha; 7 DAT; water volume 200 l/ha; 0.25% v/v MSO. The protocol:
as §1, §2, §3, §4, §5, §6, §7, §8

Setting [10] is: ECHCG, A-1 12.5, B-6 840, C-1 12.5 g ai/ha, 7 DAT.
[11] abbreviates: ECHCG, A-1 12.5, B-6 840, C-1 12.5 g ai/ha, 28 DAT.
The mark [12] stands for this setting: ECHCG, A-1 12.5, B-6 840, C-4 12.5 g ai/ha, 7 DAT.
The mark [13] stands for this setting: growth stage 19, height 10-20 cm, A-1 50 g ai/ha, B-6 840 g ai/ha, 23 DAT, water volume 140 l/ha, 1% v/v MSO + 2.5% v/v AMS.
The mark [14] stands for this setting: Table 5.1: ECHCG, A-1 + C-1 12.5 + 12.5, B-6 840, C-4 12.5 g ai/ha, 7 DAT.
The mark [15] stands for this setting: Table 5.2: ECHCG, A-1 + C-4 12.5 + 12.5, B-6 840, C-1 12.5 g ai/ha, 7 DAT.
Setting [16] is: growth stage 32, height 12 cm, A-1 + B-6 12.5 + 840, C-1 12.5, C-4 12.5 g ai/ha, 42 DAT, water volume 200 l/ha, 0.25% v/v MSO.

Take `CCOC(=O)COc1ccccc1Oc1nc(-n2c(=O)cc(C(F)(F)F)n(C)c2=O)c(F)cc1Cl` [A-1, ethyl 2-[2-[[3-chloro-5-fluoro-6-[3-methyl-2,6-dioxo-4-(trifluoromethyl)pyrimidin-1-yl]-2-pyridyl]oxy]phenoxy]acetate]: the “% Herbicidal activity” value in assay [1] (setting [10]) amounted to 30%; in assay [1] (setting [11]) it was 20%; in assay [1] (setting [12]), 30%; in assay [2] it was 58%; in assay [3], 93%; in the assay on PANMA (Panicum maximum), 73%. In addition, the “% Herbicidal activity” value is reported as 73% in assay [4] (setting [13]); 74% in [5]; 60% in assay [6] (A-1 25 g ai/ha); 82% in assay [6] (A-1 50 g ai/ha); 53% in the assay with ZEAMX (Zea mays (maize)); 30% in assay [7]. Further, the “% Herbicidal activity” value worked out at 82% with ELEIN (Eleusine indica); 82% in the assay on IPOTR (Ipomoea triloba) (A-1 25 g ai/ha); 88% in the assay with IPOTR (Ipomoea triloba) (A-1 50 g ai/ha); 71% in assay [8]; 73% in the assay on AMATU.

Regarding `O=C(O)CNCP(=O)(O)O` [B-6, glyphosate-potassium], the “% Herbicidal activity” value is listed as 70% in assay [1] (setting [10]); 94% in assay [1] (setting [11]); 70% in [1] (setting [12]); 70% in assay [1] (setting [14]); 70% in assay [1] (setting [15]); 2% in [2]. Besides, the “% Herbicidal activity” value in [3] turned out to be 0%; in the assay on PANMA (Panicum maximum), 75%; in [4] (setting [13]) it was 50%; in assay [5], 10%; in assay [6] (A-1 25 g ai/ha) it was 30%; in assay [6] (A-1 50 g ai/ha) it was 30%. Besides, the “% Herbicidal activity” value is given as 0% in the assay with ZEAMX (Zea mays (maize)); 20% in assay [7]; 68% in the assay with ELEIN (Eleusine indica); 30% in the assay on IPOTR (Ipomoea triloba) (A-1 25 g ai/ha); 30% in the assay with IPOTR (Ipomoea triloba) (A-1 50 g ai/ha); 80% in [9]. Further, the figures for the “% Herbicidal activity” value (in assay [8]; in the assay with AMATU) were 75% and 50%, respectively.

On to `CC(C)N(C)S(=O)(=O)NC(=O)c1cc(-n2c(=O)cc(C(F)(F)F)n(C)c2=O)c(F)cc1Cl` [C-1, saflufenacil], for which the “% Herbicidal activity” value in assay [1] (setting [10]) was determined as 20%; in assay [1] (setting [11]), 20%; in assay [1] (setting [15]) it was 20%; in [4] (setting [16]), 55%; in assay [9] it was 0%.

Consider `C#CCN1C(=O)C(F)(F)Oc2cc(F)c(-n3c(=O)n(C)c(=S)n(C)c3=O)cc21` [C-4, trifludimoxazin], for which the “% Herbicidal activity” value in [1] (setting [12]) was found to be 20%; in assay [1] (setting [14]), 20%; in assay [4] (setting [16]), 45%.
